The values that follow come from PubChem BioAssay (NCI).

Test systems include SF-268 CNS; U251 CNS; CCRF-CEM leukemia; SNB-19 CNS; UO-31 renal; CAKI-1 renal; MDA-MB-231 breast; UACC-62 melanoma; NCI-H23 lung; TK-10 renal.
Holding throughout (test): NCI anticancer screen, dose series, 48 h

Each structure is given as a SMILES string. Several values for one entry are separate records, joined by “and”; a condition that tells them apart may be missing. Equal values may be shown once.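 Following 48 hours of exposure in 96-well plates, responses at five concentrations were used to interpolate endpoints linearly. Here, GI50 denotes the concentration required for 50% inhibition of growth. At the TGI there is no net growth.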

Turning to `O=C1NC(=O)[C@@H](c2c[nH]c3ccccc23)[C@@H]1c1c[nH]c2ccccc12`, the GI50 in the assay with SF-268 CNS was greater than 25 µM; with U251 CNS, greater than 25 µM; with CCRF-CEM leukemia, greater than 25 µM; in the assay with SNB-19 CNS, greater than 25 µM; in the assay on UO-31 renal, greater than 16.4 µM; in the assay on CAKI-1 renal, greater than 25 µM. The GI50 in the assay on MDA-MB-231 breast, in the assay on UACC-62 melanoma, in the assay on NCI-H23 lung and with TK-10 renal was greater than 25 µM each time. Also, the TGI in the assay with SF-268 CNS, in the assay with U251 CNS, in the assay with CCRF-CEM leukemia, in the assay on SNB-19 CNS, in the assay on UO-31 renal and with CAKI-1 renal was greater than 25 µM each time. Further, the TGI in the assay with MDA-MB-231 breast, with UACC-62 melanoma, with NCI-H23 lung and in the assay on TK-10 renal was greater than 25 µM in each case.

For `COc1ccc(C2=N[C@@H](c3ccc(Cl)cc3)[C@@H](c3ccc(Cl)cc3)N2C(=O)N2CCNC(=O)C2)c(OC(C)C)c1`, the GI50 is 13.9 µM and 13.1 µM and 14 µM in the assay on SF-268 CNS; 13.7 µM and 14.8 µM and 16.2 µM in the assay on U251 CNS; 14.7 µM and 16.8 µM and 18.4 µM with CCRF-CEM leukemia; 12.5 µM and 15.5 µM and 14.6 µM in the assay with SNB-19 CNS; 5.92 µM and 3.77 µM and 2.63 µM in the assay with UO-31 renal; 11.7 µM and 1.63 µM and 2.35 µM with CAKI-1 renal. Besides, the GI50 with MDA-MB-231 breast was 17.2 µM and 13 µM and 14.8 µM; in the assay on UACC-62 melanoma it was 11.3 µM and 2.76 µM and 1.38 µM; with NCI-H23 lung, 16 µM and 15.8 µM and 16.4 µM; in the assay with TK-10 renal, 16.1 µM and 14.6 µM and 14.8 µM. Also, the TGI was 28 µM and 26.5 µM and 27.9 µM in the assay on SF-268 CNS; 27.2 µM and 29.5 µM and 31.6 µM in the assay on U251 CNS; 35.4 µM and 42.7 µM and 50 µM with CCRF-CEM leukemia; 26.1 µM and 30.1 µM and 28.2 µM in the assay on SNB-19 CNS; 20.7 µM and 17.5 µM and 15.9 µM with UO-31 renal; 24.7 µM and 12.9 µM and 14.5 µM with CAKI-1 renal. The TGI with MDA-MB-231 breast was 38.4 µM and 27.1 µM and 29.6 µM; with UACC-62 melanoma it was 25.3 µM and 19.2 µM and 16.6 µM; in the assay on NCI-H23 lung it was 32.1 µM and 33.2 µM and 34.8 µM; in the assay with TK-10 renal, 29.9 µM and 27.7 µM and 28 µM.

`COc1cc(C(=O)O/N=C(\N)Cc2cccc3ccccc23)cc(OC)c1OC`: the GI50 was 7.55 µM with SF-268 CNS; 12 µM in the assay on U251 CNS; 3.62 µM in the assay with CCRF-CEM leukemia; 8.86 µM with SNB-19 CNS; 5.26 µM in the assay on UO-31 renal; 5.91 µM with CAKI-1 renal. Moreover, the GI50 is 4.12 µM in the assay with MDA-MB-231 breast, 2.49 µM in the assay with UACC-62 melanoma, 11.4 µM in the assay with NCI-H23 lung and 20.7 µM in the assay with TK-10 renal. For the same molecule, the TGI in the assay on SF-268 CNS stood at 22.9 µM; with U251 CNS, 25.8 µM; in the assay with CCRF-CEM leukemia, 23.3 µM; in the assay with SNB-19 CNS, 21.6 µM; with UO-31 renal, 19.6 µM; with CAKI-1 renal, 19.5 µM. Also, the TGI came to 18 µM in the assay on MDA-MB-231 breast, 6.73 µM in the assay on UACC-62 melanoma, 29.8 µM in the assay on NCI-H23 lung and 35.2 µM with TK-10 renal.

With `O=C1C(Br)=C(Br)C(=O)c2ccccc21`, the GI50 was 23.3 µM and 3.27 µM with SF-268 CNS; 17.5 µM and 2.16 µM with U251 CNS; 9.85 µM and 2.25 µM in the assay with CCRF-CEM leukemia; 18.8 µM and 9.17 µM in the assay on SNB-19 CNS; 13.6 µM and 5.55 µM in the assay on UO-31 renal; 17.2 µM and 6.6 µM in the assay on NCI-H23 lung. Further, the TGI in the assay on SF-268 CNS was 57.7 µM and 12.9 µM; in the assay with U251 CNS it was 31.3 µM and 4.68 µM; in the assay with SNB-19 CNS, 37.9 µM and 17.4 µM; in the assay with UO-31 renal it was 26.7 µM and 14.7 µM; in the assay on CAKI-1 renal, 13.7 µM; with MDA-MB-231 breast, 11.6 µM. Besides, the TGI is 31.6 µM and 22.7 µM in the assay on UACC-62 melanoma; 33.5 µM and 17.6 µM with NCI-H23 lung; 32.4 µM and 26.6 µM in the assay with TK-10 renal.

`CC[C@H](C)[C@H](NC(=O)NC(C)(C)C)C(=O)N(C)[C@H](C[C@@H](OC(C)=O)c1nc(C(=O)N[C@@H](Cc2ccccc2)C[C@H](C)C(=O)OC)cs1)C(C)C`: the GI50 in the assay on SF-268 CNS was 0.867 µM; in the assay on U251 CNS it was 0.82 µM; in the assay on CCRF-CEM leukemia, 0.718 µM; in the assay on SNB-19 CNS, 1.12 µM; in the assay with UO-31 renal, 1.26 µM; with CAKI-1 renal it was 1.12 µM. For the same molecule, the GI50 in the assay on MDA-MB-231 breast is 0.726 µM; in the assay with UACC-62 melanoma, 0.172 µM; with NCI-H23 lung, 0.825 µM; in the assay on TK-10 renal it was 0.963 µM. The TGI with SF-268 CNS, in the assay with U251 CNS, in the assay on CCRF-CEM leukemia, with SNB-19 CNS, with UO-31 renal and in the assay on CAKI-1 renal was greater than 25 µM throughout. The TGI with MDA-MB-231 breast is 2.98 µM; with UACC-62 melanoma it was greater than 25 µM; in the assay with NCI-H23 lung, greater than 25 µM; in the assay on TK-10 renal, greater than 25 µM.

As to `Nc1nccc2c1ccn2-c1cccc(NC(=O)c2ccc(N3CCOCC3)c(C(F)(F)F)c2)c1`, the GI50 in the assay on SF-268 CNS is 1.21 µM; in the assay on U251 CNS it was 0.664 µM; in the assay with CCRF-CEM leukemia, 1.01 µM; with SNB-19 CNS it was 1.58 µM; in the assay with UO-31 renal it was 1.2 µM; in the assay on CAKI-1 renal, 0.531 µM. In addition, the GI50 with MDA-MB-231 breast was 0.874 µM; with UACC-62 melanoma, 0.429 µM; with NCI-H23 lung, 1.16 µM; in the assay with TK-10 renal, 1.56 µM. For the same molecule, the TGI in the assay with SF-268 CNS is greater than 46.7 µM; with U251 CNS it was 9.35 µM; in the assay on CCRF-CEM leukemia, greater than 50 µM; with SNB-19 CNS, greater than 50 µM; in the assay on UO-31 renal, 14 µM; with CAKI-1 renal, greater than 19 µM. In addition, the TGI in the assay with MDA-MB-231 breast stood at 2.86 µM; in the assay with UACC-62 melanoma, 6.12 µM; with NCI-H23 lung, 14.7 µM; with TK-10 renal it was 17.3 µM.

As to `Fc1cccc(Cl)c1Cn1c(-c2c(F)cccc2Cl)nc2ccccc21`, the GI50 in the assay with SF-268 CNS was 15 µM; in the assay on U251 CNS it was 19.9 µM; in the assay on CCRF-CEM leukemia it was 26.2 µM; in the assay with SNB-19 CNS, 18.4 µM; with UO-31 renal, 12.4 µM; in the assay on CAKI-1 renal, 24 µM. Also, the GI50 was 13.2 µM in the assay with MDA-MB-231 breast, 12.8 µM with UACC-62 melanoma, 31.2 µM in the assay with NCI-H23 lung and 15.6 µM in the assay with TK-10 renal. Also, the TGI in the assay on SF-268 CNS is 32.6 µM; in the assay on U251 CNS, 47.1 µM; with CCRF-CEM leukemia, greater than 100 µM; in the assay on SNB-19 CNS it was 48.1 µM; in the assay on UO-31 renal it was 28.4 µM; in the assay with CAKI-1 renal, 47.5 µM. For the same molecule, the TGI is 29.3 µM in the assay with MDA-MB-231 breast, 29.8 µM in the assay on UACC-62 melanoma, greater than 100 µM in the assay on NCI-H23 lung and 39.8 µM with TK-10 renal.
